According to ChEMBL document CHEMBL4304773, “Nitroimidazole-containing compounds and their antibacterial and antitubercular activities” (2019):
Converted amounts (≈) assume the structure as drawn.

Columns and labels:
Type in all cases: functional
[1] = tested on: Escherichia coli; assay: Antibacterial activity against Escherichia coli ATCC 25922 after 24 hrs; conditions: ATCC 25922, 24 h
[2] = tested on: Staphylococcus aureus; assay: Antibacterial activity against methicillin-resistant Staphylococcus aureus after 24 hrs
[3] = tested on: Klebsiella pneumoniae; assay: Antibacterial activity against Klebsiella pneumoniae after 24 hrs
[4] = tested on: Pseudomonas aeruginosa; assay: Antibacterial activity against Pseudomonas aeruginosa after 24 hrs
[5] = tested on: Staphylococcus aureus; assay: Antibacterial activity against Staphylococcus aureus ATCC 25923 after 24 hrs; conditions: ATCC 25923, 24 h
[6] = tested on: Enterococcus faecalis; assay: Antibacterial activity against Enterococcus faecalis after 24 hrs
[7] = tested on: Staphylococcus aureus; assay: Antibacterial activity against Staphylococcus aureus ATCC 29213 after 24 hrs; conditions: ATCC 29213, 24 h
[8] = tested on: Pseudomonas aeruginosa; assay: Antibacterial activity against Pseudomonas aeruginosa ATCC 27853 after 24 hrs; conditions: ATCC 27853, 24 h
[9] = tested on: Pseudomonas aeruginosa; assay: Antibacterial activity against Pseudomonas aeruginosa
[10] = tested on: Candida albicans; assay: Antifungal activity against Candida albicans
[11] = tested on: Escherichia coli; assay: Antibacterial activity against Escherichia coli
[12] = tested on: Staphylococcus aureus; assay: Antibacterial activity against Staphylococcus aureus
[13] = tested on: Bacillus subtilis; assay: Antibacterial activity against Bacillus subtilis

MIC [9] [µg/mL] | MIC [10] [µg/mL] | MIC [11] [µg/mL] | MIC [12] [µg/mL] | MIC [13] [µg/mL] | Compound | MIC [1] [µM] | MIC [2] [µM] | MIC [3] [µM] | MIC [4] [µM] | MIC [5] [µM] | MIC [6] [µM] | MIC [7] [µM] | MIC [8] [µM]
– | – | – | – | – | COc1cc(/C=C(\C#N)n2cc([N+](=O)[O-])nc2C)c2c(c1OCc1ccc([N+](=O)[O-])cc1)CN1CCc3cc4c(cc3C1C2)OCO4 (stereo not drawn) | 3 to 1020 (≈ 1.91 to 650 µg/mL) | 3 to 1020 (≈ 1.91 to 650 µg/mL) | 3 to 1020 (≈ 1.91 to 650 µg/mL) | 3 to 1020 (≈ 1.91 to 650 µg/mL) | 3 to 1020 (≈ 1.91 to 650 µg/mL) | 3 to 1020 (≈ 1.91 to 650 µg/mL) | 3 to 1020 (≈ 1.91 to 650 µg/mL) | 3 to 1020 (≈ 1.91 to 650 µg/mL)
0.25 to 0.5 (≈ 0.644 to 1.29 µM) | 0.25 to 0.5 (≈ 0.644 to 1.29 µM) | 0.25 to 0.5 (≈ 0.644 to 1.29 µM) | 0.25 to 0.5 (≈ 0.644 to 1.29 µM) | 0.25 to 0.5 (≈ 0.644 to 1.29 µM) | CC(=O)N1N=C(Cn2c([N+](=O)[O-])cnc2C)OC1(C)c1ccc([N+](=O)[O-])cc1 (stereo not drawn) | – | – | – | – | – | – | – | –
0.25 to 0.5 (≈ 0.592 to 1.18 µM) | 0.25 to 0.5 (≈ 0.592 to 1.18 µM) | 0.25 to 0.5 (≈ 0.592 to 1.18 µM) | 0.25 to 0.5 (≈ 0.592 to 1.18 µM) | 0.25 to 0.5 (≈ 0.592 to 1.18 µM) | CC(=O)N1N=C(Cn2c([N+](=O)[O-])cnc2C)OC1(C)c1ccc(Br)cc1 (stereo not drawn) | – | – | – | – | – | – | – | –
– | – | – | – | – | COc1cc(/C=C(\C#N)n2cc([N+](=O)[O-])nc2C)c2c(c1OCc1ccc(Cl)cc1Cl)CN1CCc3cc4c(cc3C1C2)OCO4 (stereo not drawn) | 3 to 1020 (≈ 1.98 to 674 µg/mL) | 3 to 1020 (≈ 1.98 to 674 µg/mL) | 3 to 1020 (≈ 1.98 to 674 µg/mL) | 3 to 1020 (≈ 1.98 to 674 µg/mL) | 3 to 1020 (≈ 1.98 to 674 µg/mL) | 3 to 1020 (≈ 1.98 to 674 µg/mL) | 3 to 1020 (≈ 1.98 to 674 µg/mL) | 3 to 1020 (≈ 1.98 to 674 µg/mL)
0.25 to 0.5 (≈ 0.7 to 1.4 µM) | 0.25 to 0.5 (≈ 0.7 to 1.4 µM) | 0.25 to 0.5 (≈ 0.7 to 1.4 µM) | 0.25 to 0.5 (≈ 0.7 to 1.4 µM) | 0.25 to 0.5 (≈ 0.7 to 1.4 µM) | CC(=O)N1N=C(Cn2c([N+](=O)[O-])cnc2C)OC1(C)c1ccc(C)cc1 (stereo not drawn) | – | – | – | – | – | – | – | –
– | – | – | – | – | COc1cc(/C=C(\C#N)n2cc([N+](=O)[O-])nc2C)c2c(c1OCCO)CN1CCc3cc4c(cc3C1C2)OCO4 (stereo not drawn) | 3 to 1020 (≈ 1.64 to 557 µg/mL) | 3 to 1020 (≈ 1.64 to 557 µg/mL) | 3 to 1020 (≈ 1.64 to 557 µg/mL) | 3 to 1020 (≈ 1.64 to 557 µg/mL) | 3 to 1020 (≈ 1.64 to 557 µg/mL) | 3 to 1020 (≈ 1.64 to 557 µg/mL) | 3 to 1020 (≈ 1.64 to 557 µg/mL) | 3 to 1020 (≈ 1.64 to 557 µg/mL)
– | – | – | – | – | CCOc1c(OC)cc(/C=C(\C#N)n2cc([N+](=O)[O-])nc2C)c2c1CN1CCc3cc4c(cc3C1C2)OCO4 (stereo not drawn) | 3 to 1020 (≈ 1.59 to 541 µg/mL) | 3 to 1020 (≈ 1.59 to 541 µg/mL) | 3 to 1020 (≈ 1.59 to 541 µg/mL) | 3 to 1020 (≈ 1.59 to 541 µg/mL) | 3 to 1020 (≈ 1.59 to 541 µg/mL) | 3 to 1020 (≈ 1.59 to 541 µg/mL) | 3 to 1020 (≈ 1.59 to 541 µg/mL) | 3 to 1020 (≈ 1.59 to 541 µg/mL)
– | – | – | – | – | COc1cc(/C=C(\C#N)n2cc([N+](=O)[O-])nc2C)c2c(c1OCC#N)CN1CCc3cc4c(cc3C1C2)OCO4 (stereo not drawn) | 3 to 1020 (≈ 1.62 to 552 µg/mL) | 3 to 1020 (≈ 1.62 to 552 µg/mL) | 3 to 1020 (≈ 1.62 to 552 µg/mL) | 3 to 1020 (≈ 1.62 to 552 µg/mL) | 3 to 1020 (≈ 1.62 to 552 µg/mL) | 3 to 1020 (≈ 1.62 to 552 µg/mL) | 3 to 1020 (≈ 1.62 to 552 µg/mL) | 3 to 1020 (≈ 1.62 to 552 µg/mL)
– | – | – | – | – | CCCCOc1c(OC)cc(/C=C(\C#N)n2cc([N+](=O)[O-])nc2C)c2c1CN1CCc3cc4c(cc3C1C2)OCO4 (stereo not drawn) | 3 to 1020 (≈ 1.67 to 569 µg/mL) | 3 to 1020 (≈ 1.67 to 569 µg/mL) | 3 to 1020 (≈ 1.67 to 569 µg/mL) | 3 to 1020 (≈ 1.67 to 569 µg/mL) | 3 to 1020 (≈ 1.67 to 569 µg/mL) | 3 to 1020 (≈ 1.67 to 569 µg/mL) | 3 to 1020 (≈ 1.67 to 569 µg/mL) | 3 to 1020 (≈ 1.67 to 569 µg/mL)
